# Starred links: 1 amine or outer side, 2 acyl side, 3 side chain; linkers in the order of their positions; H or OH if unused. Positions of bridges follow the written chain, without caps; N, C: chain ends. Non-standard residues stand in square brackets, D forms with d. Residues, ends and D or L forms follow the SMILES beside them. *: point of attachment. Leu(3R-OH,Nα-propionyl) = CCC(=O)N[C@H](C(=O)*)[C@H](O)C(C)C; X1 = CC(C)[C@@H](O[*:3])[C@H](N[*:1])C(=O)[*:2]; X2 = CC(C)[C@H](O[*:3])[C@@H](N[*:1])C(=O)[*:2]; NMeaThr = CN[C@H](C(=O)O)[C@H](C)O; dPhLac = O=C(O)[C@H](O)Cc1ccccc1; NMeA = CN[C@@H](C)C(=O)O; NMeDha = C=C(NC)C(=O)O
# Columns and labels:
# [1] = system: OCM-1A cells; test: YAP-driven transcriptional reporter; type: cell-based, Human; conditions: FIG. 6B
# Description: Expression data from two experimental replicates are mean-centered; the color gradient corresponds to difference in log 2 ratio of expression from the mean, such that 0.5 versus −0.5 is a total difference of 2-fold in unlogged expression.
# Assays of transcriptional reporters driven by YAP or Gα subunits were performed as described (42, 43). YAP- or Ga-driven firefly luciferase activity was normalized to Renilla luciferase expressed from a constitutive promoter.
# [2] = system: Mel202 cells; test: Melanocytic re-differentiation (morphology, pigmentation, immunostaining); type: cell-based, Human
# Description: (§1) FIG. 5A Morphological changes elicited by FR. UM cell lines were treated 3 d with FR and imaged by phase contrast microscopy. FR caused UM cells driven by constitutively active Gαq (92.1 and Mel202) to lose their characteristic spindle shaped and assume a stellate shape with multiple projections. FR had no effect on BRAF-driven UM cells (OCM-1A). FIG. 5B Melanocytic differentiation of FR-treated UM cells indicated by pigmentation. UM cell lines were treated 3 d with FR. Cells were pelleted and examined macroscopically. […] Scale bar=50 μm.
# (§2) Cell fixation was carried out by adding an equal volume of 2×fixative (PBS with 4% paraformaldehyde and 0.4% glutaraldehyde) to UM cells in RPMI growth medium. After 15 min at 37° C., cells were permeabilized with 0.1% Triton X-100 in PBS for 5 min, washed with PBS, and blocked with 2% fish gelatin (Sigma-Aldrich) in PBS. Primary and secondary antibodies were diluted in 2% fish gelatin in PBS. Primary antibodies included mouse monoclonal anti-pre-melanosomal protein (One World Lab, San Diego, Calif.), rabbit polyclonal anti-tyrosinase (One World Lab), rabbit polyclonal anti-dopachrome tautomerase (One World Lab), rabbit polyclonal anti-S100 (DakoCytomation, Denmark), and mouse monoclonal anti-BrdU (Life Technologies). Secondary antibodies were Alexa-fluor conjugates (Life Technologies), and the mounting agent was ProLong Gold (Life Technologies). Cell morphology was assessed by phase contrast imaging with an inverted microscope (Olympus IX72) using a 10×objective.
# [3] = system: OCM-1A cells; test: as above; type: cell-based, Human; conditions: 3 d FR, FIG. 5A
# Description: as §1, §2
# [4] = molecular target: T1, constitutively active Gα13 with the RGS domain of LARG (Homo sapiens, UniProt Q14344, Q226L); test: Split luciferase complementation, Gα interaction with RGS domain of LARG; type: cell-based; conditions: FIG. 1C
# T1 construct: expressed in transfected cells; host or cells: HEK-293
# T1 sequence (Q14344 1-377 Q226L): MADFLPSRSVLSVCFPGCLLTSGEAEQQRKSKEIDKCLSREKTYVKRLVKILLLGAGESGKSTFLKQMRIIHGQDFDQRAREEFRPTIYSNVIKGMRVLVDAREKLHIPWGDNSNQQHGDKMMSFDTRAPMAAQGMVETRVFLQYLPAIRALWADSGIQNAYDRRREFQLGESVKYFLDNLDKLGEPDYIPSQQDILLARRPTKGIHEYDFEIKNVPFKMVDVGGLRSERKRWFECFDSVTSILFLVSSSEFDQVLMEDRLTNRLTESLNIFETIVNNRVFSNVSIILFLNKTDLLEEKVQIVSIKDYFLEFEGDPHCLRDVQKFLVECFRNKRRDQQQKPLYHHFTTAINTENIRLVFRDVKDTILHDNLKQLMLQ
# Text: (FIG. 1A-1C) depicts the effect of FR on the activity state of Gα subunits as determined by interaction with Gβγ or RGS domains in split luciferase complementation assays. FIG. 1A Effect of FR on interaction of Gβγ2 with the indicated wild type (WT) or mutant constitutively active (Q/L) forms of Gα (q) or Gα13 (13). * p<0.01; ** p<0.05. FIG. 1B Potency of FR as a driver of interaction of Gβγ2 with wild type or mutant constitutively active Gαq. FIG. 1C Potency of FR as inhibitor of interaction of RGS2 with mutant constitutively active (Q/L) Gαq, or interaction of the RGS domain of LARG (LARG-RGS) with mutant constitutively active Gα13. FIG. 1D Potency of FR as inhibitor of signal transduction by constitutively active Gαq or Gα13 detected with an SRE(L) promoter-driven transcriptional reporter. Constitutively active Gαq (Q/L), constitutively active Gαq bearing the indicated FR binding site mutations, and constitutively Gα13 (Q/L) were studied.
# To detect protein-protein interactions, a split luciferase complementation assays was used (23), as employed to study activation state-dependent interaction between Gα subunits and cognate binding partners (24).
# Split luciferase assays were performed as described (24). […]
smiles,measurement,setting,value
"C=C1C(=O)N[C@@H](C)C(=O)N(C)[C@@H](C)C(=O)N[C@H]([C@@H](OC(=O)[C@@H](NC(=O)CC)[C@H](O)C(C)C)C(C)C)C(=O)N(C)[C@@H]([C@H](C)OC)C(=O)O[C@H](C(C)C)[C@H](NC(C)=O)C(=O)O[C@H](Cc2ccccc2)C(=O)N1C [FR, [(1S)-1-[(3S,6R,9S,12S,18R,21S,22R)-21-acetamido-18-benzyl-3-[(1S)-1-methoxyethyl]-4,9,10,12,16-pentamethyl-15-methylidene-2,5,8,11,14,17,20-heptaoxo-22-propan-2-yl-1,19-dioxa-4,7,10,13,16-pentazacyclodocos-6-yl]-2-methylpropyl] (2S,3R)-3-hydroxy-4-methyl-2-(propanoylamino)pentanoate] (Ac-[X1][dPhLac][NMeDha]A[NMeA][X2](Leu(3R-OH,Nα-propionyl))[NMeaThr](Me); ester 1-C)",effect on YAP-driven transcriptional reporter,[1],no effect
same,cell morphology (phase contrast),"[2]; 3 d FR, FIG. 5A",morphological changes indicative of re-differentiation
same,melanocytic pigmentation,"[2]; 3 d FR, FIG. 5B",strikingly increased
same,"expression levels of TYR, DCT and PMEL (immunofluorescence)",[2]; FIG. 5C,increased
same,cell morphology (phase contrast),[3],no effect
same,effect on interaction with the RGS domain of LARG,[4],lack of effect
